Key:
Experiment in all cases: relative viability (nuclei count vs DMSO), 5 days (fraction); higher = more cells survive
PC-14 = test system: PC-14
In short: (§1)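 Lung cancer cell lines were seeded in 1536-well plates and dosed by pin tool the next day, with either a single drug or a fixed anchor-drug dose combined with five library-drug doses (not always all listed) spaced in √10 steps. Five days later, one step fixed the cells and stained their nuclei (final 0.05% Triton X-100, 1% formaldehyde, 1 ug/ml Hoechst), and nuclei were counted on 4× images. Relative viability is the nuclei count in treated wells divided by the count in vehicle wells, and each value is the median of duplicate plates.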

HCC-366 = test system: HCC-366
In short: as §1

NCI-H23 = test system: NCI-H23
In short: as §1

NCI-H661 = test system: NCI-H661
In short: as §1

NCI-H2009 = test system: NCI-H2009
In short: as §1

LC-2-ad = test system: LC-2-ad
In short: as §1

NCI-H2342 = test system: NCI-H2342
In short: as §1

NCI-H1975 = test system: NCI-H1975
In short: as §1

HCC-827 = test system: HCC-827
In short: as §1

NCI-H2085 = test system: NCI-H2085
In short: as §1

H3255 = test system: H3255
In short: as §1

NCI-H2228 = test system: NCI-H2228
In short: as §1

`CCNC(=O)c1noc(-c2cc(C(C)C)c(O)cc2O)c1-c1ccc(CN2CCOCC2)cc1` [Luminespib] + O=C(CCCCCCC(=O)Nc1ccccc1)NO [Vorinostat] (partner 1 µM) gave a relative viability (PC-14; first compound 0.002 µM) of 0.787, a relative viability (PC-14; first compound 0.006325 µM) of 0.639 and a relative viability (PC-14; first compound 0.02 µM) of 0.121. The relative viability (PC-14; first compound 0.06325 µM) was 0.0465, the relative viability (PC-14; first compound 0.2 µM) was 0.0692 and the relative viability (HCC-366; first compound 0.002 µM) was 0.38. The relative viability (HCC-366; first compound 0.006325 µM) was 0.35, the relative viability (HCC-366; first compound 0.02 µM) was 0.18 and the relative viability (HCC-366; first compound 0.06325 µM) was 0.0252. For the same compound, the relative viability (HCC-366; first compound 0.2 µM) was 0.0243, the relative viability (NCI-H23; first compound 0.002 µM) was 0.632 and the relative viability (NCI-H23; first compound 0.006325 µM) was 0.481. The relative viability (NCI-H23; first compound 0.02 µM) was 0.315, the relative viability (NCI-H23; first compound 0.06325 µM) was 0.0969 and the relative viability (NCI-H23; first compound 0.2 µM) was 0.108. The relative viability (NCI-H661; first compound 0.002 µM) was 0.777, the relative viability (NCI-H661; first compound 0.006325 µM) was 0.803 and the relative viability (NCI-H661; first compound 0.02 µM) was 0.759. The relative viability (NCI-H661; first compound 0.06325 µM) was 0.345, the relative viability (NCI-H661; first compound 0.2 µM) was 0.306 and the relative viability (NCI-H2009; first compound 0.002 µM) was 0.765. For the same compound, the relative viability (NCI-H2009; first compound 0.006325 µM) was 0.594, the relative viability (NCI-H2009; first compound 0.02 µM) was 0.705 and the relative viability (NCI-H2009; first compound 0.06325 µM) was 0.429. For the same compound, the relative viability (NCI-H2009; first compound 0.2 µM) was 0.113, the relative viability (LC-2-ad; first compound 0.002 µM) was 0.647 and the relative viability (LC-2-ad; first compound 0.006325 µM) was 0.727. For the same compound, the relative viability (LC-2-ad; first compound 0.02 µM) was 0.554, the relative viability (LC-2-ad; first compound 0.06325 µM) was 0.465 and the relative viability (LC-2-ad; first compound 0.2 µM) was 0.179. The relative viability (NCI-H2342; first compound 0.002 µM) was 0.766, the relative viability (NCI-H2342; first compound 0.006325 µM) was 0.809 and the relative viability (NCI-H2342; first compound 0.02 µM) was 0.467. For the same compound, the relative viability (NCI-H2342; first compound 0.06325 µM) was 0.679, the relative viability (NCI-H2342; first compound 0.2 µM) was 0.416 and the relative viability (NCI-H1975; first compound 0.002 µM) was 0.736. For the same compound, the relative viability (NCI-H1975; first compound 0.006325 µM) was 0.632, the relative viability (NCI-H1975; first compound 0.02 µM) was 0.592 and the relative viability (NCI-H1975; first compound 0.06325 µM) was 0.138. The relative viability (NCI-H1975; first compound 0.2 µM) was 0.147, the relative viability (HCC-827; first compound 0.002 µM) was 0.817 and the relative viability (HCC-827; first compound 0.006325 µM) was 0.884. For the same compound, the relative viability (HCC-827; first compound 0.02 µM) was 0.45, the relative viability (HCC-827; first compound 0.06325 µM) was 0.797 and the relative viability (HCC-827; first compound 0.2 µM) was 0.144. The relative viability (NCI-H2085; first compound 0.002 µM) was 0.797, the relative viability (NCI-H2085; first compound 0.006325 µM) was 0.717 and the relative viability (NCI-H2085; first compound 0.02 µM) was 0.553. For the same compound, the relative viability (NCI-H2085; first compound 0.06325 µM) was 0.367, the relative viability (NCI-H2085; first compound 0.2 µM) was 0.31 and the relative viability (H3255; first compound 0.002 µM) was 0.843. It also gave a relative viability (H3255; first compound 0.02 µM) of 0.625, a relative viability (H3255; first compound 0.06325 µM) of 0.745 and a relative viability (H3255; first compound 0.2 µM) of 0.248. The relative viability (NCI-H2228; first compound 0.002 µM) was 0.873, the relative viability (NCI-H2228; first compound 0.006325 µM) was 0.503 and the relative viability (NCI-H2228; first compound 0.02 µM) was 0.54.

From the supplement of paper PMC10307832
